According to patent publication US20260215422A1, “HERBICIDAL COMPOSITIONS” (SYNGENTA CROP PROTECTION AG, priority 2022, published 2026):

Legend:
RW478-16 = assay: Additional testing of Group 12 herbicides with other HPPD inhibitor herbicides (Table 7), Colby; assay type: in vivo, Amaranthus sp. (AMAPA); conditions: for Observed Product 1-(Group 12): Group 12 herbicide alone 15.8 g/ha
From the text: (§1) When active ingredients are combined, the activity to be expected (E) for any given active ingredient combination obeys the so-called Colby Formula and can be calculated as follows (Colby, S. R., Calculating synergistic and antagonistic responses of herbicide combination, Weeds, Vol. 15, pages 20-22; 1967): • ppm=milligrams of active ingredient (a.i.) per liter • X=% action by first active ingredient using p ppm of the active ingredient • Y=% action by second active ingredient using q ppm of the active ingredient.
(§2) According to Colby, the expected action of active ingredients A+B using p+q ppm of active ingredient is represented by the following formula:
(§3) [formula] • If the action actually observed (O) is greater than the expected action E then the action of the combination is super-additive, i.e. there is a synergistic effect. In mathematical terms, synergism corresponds to a positive value for the difference of (O-E). In the case of purely complementary addition of activities (expected activity), said difference (O-E) is zero. A negative value of said difference (O-E) signals a loss of activity compared to the expected activity.
(§4) Additional testing within the scope of disclosure was performed using other HPPD inhibitor herbicides and Group 12 herbicides.

S129 = assay: as above; assay type: in vivo, Amaranthus sp. (AMAPA); conditions: for Observed Product 1-(Group 12): Group 12 herbicide alone 15.8 g/ha
From the text: as §1, §2, §3, §4

Group 27 resistant AMAPA = assay: Greenhouse preemergence trial, % control at 29 days after application; assay type: in vivo, Palmer amaranth
HPPD resistant AMATA = assay: Field trial of dent corn, control 34 days after application; assay type: in vivo, common waterhemp, Amaranthus rudis Sauer; conditions: 70 g ai/ha diflufenican
Experimental: Diflufenican, was already very active on HPPD-R AMAPA providing 98% control alone at 35 g ai/ha, the rate used in mixture with MST+BIR making it difficult to determine if there was synergy between the herbicides. Nevertheless, additional data regarding diflufenican and MST+BIR was obtained during field trials of dent corn.
During the field trial, HPPD resistant AMATA (common waterhemp, Amaranthus rudis Sauer) was tested as follows: • 1) 70 g ai/ha diflufenican—providing 55% control • 2) 202 g ai/ha MST+50 g ai/ha BIR—providing 30% control • 3) 70 g ai/ha diflufenican+202 g ai/ha MST+50 g ai/ha BIR—providing 92% control.
The results were collected 34 days after application. The inclusion of a Group 12 herbicide with at least one HPPD-inhibitor, specifically MST+BIR, provided surprising control of HPPD-resistant weeds.

[1] = tested on: HPPD-resistant (RW478-16) Amaranthus sp. (AMAPA); assay: Pre-emergent synergy test of DFF with MST + BIR (Tables 1-3), Colby; assay type: in vivo; conditions: pre-emergence, 528 h, 22 days after treatment, read-out: Activity (% control) (RW478-16)
From the text: as §1, §2, §3
(§5) Synergy was further tested for in sensitive (S-129) and HPPD-resistant (RW478-16) Amaranthus sp. (AMAPA) in pre-emergent tests according to the treatments in Table 1 below.
(§6) Dose responses rates were calculated for the treatments at 22 days after treatment which are provided in FIGS. 3 and 4, and further summarized in Table 2.

[2] = tested on: sensitive (S-129) Amaranthus sp. (AMAPA); assay: as above; assay type: in vivo; conditions: pre-emergence, 528 h, 22 days after treatment, read-out: Activity (% control) (S-129)
From the text: as §1, §2, §3, §5, §6

[3] = tested on: HPPD-resistant (RW478-16) Amaranthus sp. (AMAPA); assay: Pre-emergent synergy test of PIC with MST + BIR (Tables 4-6), Colby; assay type: in vivo; conditions: 22 days after treatment
From the text: as §1, §2, §3, §5
(§7) Similar tests were performed with picolinafen (PIC) and mesotrione+bicyclopyrone (MST+BIR), as summarized by Table 4.

[4] = tested on: sensitive (S-129) Amaranthus sp. (AMAPA); assay: as above; assay type: in vivo; conditions: 22 days after treatment
From the text: as §1, §2, §3, §5, §7

[5] = (IFT 12.3) g/ha without Group 12
[6] = (MST 25.3) g/ha without Group 12
[7] = (BIR 6.3) g/ha without Group 12

Molecule: CCC(Oc1ccc(F)c(C(F)(F)F)c1)C(=O)NCc1ccccc1 (centres unmarked) [BFB, beflubutamid]
- Observed Product 1-(Group 12) (RW478-16): 37%
- Observed Product 1-(Group 12) (S129): 67%

Molecule: O=C(Nc1ccc(F)cc1F)c1cccnc1Oc1cccc(C(F)(F)F)c1 [DFF, diflufenican]
- % control of HPPD-R AMAPA (Group 27 resistant AMAPA; alone at 35 g ai/ha): 98%
- % control of HPPD resistant AMATA (HPPD resistant AMATA): 55%
- inhibition at 1.58 g/ha ([1]; DFF 1.58 g ai/ha alone): 77%
- inhibition at 2.11 g/ha ([1]; DFF 2.11 g ai/ha alone): 53%
- inhibition at 3.16 g/ha ([1]; DFF 3.16 g ai/ha alone): 45%
- inhibition at 7.9 g/ha ([1]; DFF 7.9 g ai/ha alone): 22%
- inhibition at 15.8 g/ha ([1]; DFF 15.8 g ai/ha alone): 18%
- inhibition at 31.6 g/ha ([1]; DFF 31.6 g ai/ha alone): 3%
- inhibition at 1.58 g/ha ([2]; DFF 1.58 g ai/ha alone): 100%
- inhibition at 2.11 g/ha ([2]; DFF 2.11 g ai/ha alone): 94%
- inhibition at 3.16 g/ha ([2]; DFF 3.16 g ai/ha alone): 72%
- inhibition at 7.9 g/ha ([2]; DFF 7.9 g ai/ha alone): 23%
- inhibition at 15.8 g/ha ([2]; DFF 15.8 g ai/ha alone): 10%
- inhibition at 31.6 g/ha ([2]; DFF 31.6 g ai/ha alone): 13%
- Observed Product 1-(Group 12) (RW478-16): 70%
- Observed Product 1-(Group 12) (S129): 99%

Molecule: O=C1C(Cl)C(CCl)CN1c1cccc(C(F)(F)F)c1 (centres unmarked) [FLU, flurochloridone]
- Observed Product 1-(Group 12) (RW478-16): 27%
- Observed Product 1-(Group 12) (S129): 57%

Molecule: CS(=O)(=O)c1cc(C(F)(F)F)ccc1C(=O)c1cnoc1C1CC1 [IFT, isoxaflutole]
- Observed Product 2-(HPPDs) (RW478-16; [5]): 37%
- Observed Product 2-(HPPDs) (S129; [5]): 98%

Molecule: CS(=O)(=O)c1ccc(C(=O)C2C(=O)CCCC2=O)c([N+](=O)[O-])c1 [MST, mesotrione]
- Observed Product 2-(HPPDs) (RW478-16; [6]): 28%
- Observed Product 2-(HPPDs) (S129; [6]): 100%

Molecule: O=C(Nc1ccc(F)cc1)c1cccc(Oc2cccc(C(F)(F)F)c2)n1 [PIC, picolinafen]
- control of HPPD-Resistant AMAPA (Group 27 resistant AMAPA; Picolinafen 35 g ai/ha alone): did not adequately control
- Activity (% control) (RW478-16) ([3]; PIC 1.58 g ai/ha alone): 0%
- Activity (% control) (RW478-16) ([3]; PIC 2.11 g ai/ha alone): 7%
- Activity (% control) (RW478-16) ([3]; PIC 3.16 g ai/ha alone): 10%
- Activity (% control) (RW478-16) ([3]; PIC 7.9 g ai/ha alone): 10%
- Activity (% control) (RW478-16) ([3]; PIC 15.8 g ai/ha alone): 40%
- Activity (% control) (RW478-16) ([3]; PIC 31.6 g ai/ha alone): 53%
- Activity (% control) (S-129) ([4]; PIC 1.58 g ai/ha alone): 10%
- Activity (% control) (S-129) ([4]; PIC 2.11 g ai/ha alone): 22%
- Activity (% control) (S-129) ([4]; PIC 3.16 g ai/ha alone): 17%
- Activity (% control) (S-129) ([4]; PIC 7.9 g ai/ha alone): 30%
- Activity (% control) (S-129) ([4]; PIC 15.8 g ai/ha alone): 53%
- Activity (% control) (S-129) ([4]; PIC 31.6 g ai/ha alone): 72%
- Observed Product 1-(Group 12) (RW478-16): 28%
- Observed Product 1-(Group 12) (S129): 77%

Molecule: bicyclopyrone [BIR]
- Observed Product 2-(HPPDs) (RW478-16; [7]): 20%
- Observed Product 2-(HPPDs) (S129; [7]): 57%
